Reference: patent US8815210B2, “Diagnostic composition comprising plasma cations having superior safety profile” (GE Healthcare AS, priority 2009, dated 2014)

Experiments:
[1] = tested on: human serum albumin (HSA); assay: Binding to human serum albumin, equilibrium dialysis; format: in vitro ADME; conditions: 25 hours, citrated human plasma
Procedure: The binding of Compound I to human serum albumin (HSA) was determined using an equilibrium dialysis method. The binding of Compound I to human serum albumin was determined to be very low, 3.1±1.3%, confirming the negligible interaction of the substance with endogenous proteins.
The binding of Compound I to human serum albumin (HSA) was determined using an equilibrium dialysis method. A stock solution of Compound I (5.0 mg/ml in phosphate buffered saline (PBS)) was mixed with citrate:human plasma in a ratio of 1:9. Equilibration was carried out in a Diachem Dianorm Dialyser against an aqueous phosphate buffered saline using a Diachem 10.17 MW cutoff 10000 membrane and was carried out for 25 hours. Analysis of the solutions was performed using an ICP-AES instrument. In addition, spiked PBS solutions were also equilibrated against citrated human plasma solutions to ensure that the equilibrium had been obtained. The binding of Compound I to human serum albumin was determined to be very low, 3.1±1.3%, confirming the negligible interaction of the substance with endogenous proteins. As a reference, the binding of iodixanol to HSA was determined to 0.4±0.9%.

[2] = Partition coefficient between octanol and water; format: physicochemical; conditions: n-octanol/water
Procedure: As a measure of the hydrophilicity of Compound I, the partition coefficient between octanol and water was determined. Water (5 ml) containing the test substance (0.3 mg/ml) was shaken with 15 ml n-octanol until equilibrium had been obtained. The aqueous phase was separated by centrifugation and analyzed by HPLC (HP1100 equipped with a Discovery C18 column, 100×2.1 mm) using UV detection at 244 nm and a flow of 0.3 ml/min. Isocratic HPLC conditions were used, 8% acetonitrile in water (v/v). The octanol phase (12.5 ml) was extracted with water (0.75 ml) until equilibrium had been obtained and the phases were separated by centrifugation. The aqueous phase was analyzed by HPLC using the conditions detailed above. Both octanol and water were pre-saturated with water and octanol, respectively, before the partition coefficient experiments. […] As a comparison, the corresponding logP of iodixanol was determined to −4.02. The reported literature value is −4.05. The increased hydrophilicity of Compound I compared to iodixanol is confirmed by its HPLC behavior.

[3] = Viscosity, calibrated U-tube technique; format: physicochemical; conditions: 320 mgI/ml, 20° C.
Procedure: The viscosity of compound I was determined at 20° C. and 37° C. at three different concentrations. The viscosity at 320 mgI/ml and 20° C. is around 24 mPas.
The viscosity of Compound I was determined at two different temperatures, 20° C. and 37° C. and three different concentrations, 246, 295 and 313 mgI/ml. The test solutions were isotonic through adjustment of the osmolality with NaCl and had been sterilized by autoclavation. The density of the solutions was determined using a Density meter, DMA58 (Anton Paar). A calibrated U-tube technique was used, where the time of fall was used as a measure of dynamic viscosity. The viscosity of compound I was determined at 20° C. and 37° C. at three different concentrations. In comparison with Visipaque, the viscosity at 320 mgI/ml and 20° C. is similar, around 24 mPas.

[4] = Osmolality, vapour pressure osmometer; format: physicochemical; conditions: 320 mgI/ml
Procedure: The osmolality of Compound I was determined at four different concentrations, 204, 254, 310 and 324 mgI/ml. The osmolality of Compound I at 320 mgI/ml is 136 mOsm/kg.
The osmolality of Compound I was determined at four different concentrations, 204, 254, 310 and 324 mgI/ml. A Vapro 5520 vapour pressure osmometer from Vapro Inc. was used.
The osmolality of Compound I at 320 mgI/ml is lower than that of iodixanol, 136 mOsm/kg vs 210 mOsm/kg at 320 mgI/ml.

Sca:SD rats = conditions: rat, in vivo
Procedure: Young adult male Sca:SD rats (Scanbur, Sweden), weighing 200±20 g, were injected intravenously at a rate of 1.2 ml/min with either Compound I (340 mgI/mL, 286 mosmol/kg), iodixanol (321 mgI/mL, 284 mosmol/kg), osmotic control mannitol (283 mosmol/kg), or saline (290 mosmol/kg), administered as 2 separate doses 4 hours apart. For the interim kill animals (day 2 post-treatment), Compound I and iodixanol were dosed at 8, 10 and 12.8 gI/kg, corresponding to total dose volumes of 23.7, 29.7 and 38.0 ml/kg, and 25, 31.3 and 40 ml/kg, respectively, whereas for mannitol and saline, the dose volume was 40 ml/kg. For the 7 day terminal kill animals, there were 4 dose groups; Compound I and iodixanol (12.8 gI/kg), and saline and mannitol (40 mL/kg). In all cases, each group included 8 animals.
The following evaluations were made during the study; clinical signs, body weights and blood for haematology and clinical chemistry on days 0, 2 and 7, and gross observations, organ weight and histomorphological examination of tissues from the animals killed by excess intravenous thiopental injection on days 2 or 7. The day of dosing was defined as Day 0. Clinical biochemistry parameters (Na, K, Cl, PO4, Ca, AST, ALT, ALP, cholesterol, creatinine, CK, GGT, TG (triglyceride), total bilirubin, total protein, urea, albumin, LDH and GLDH were measured on a Beckman Synchron CX5 at 37° C. Haematology parameters (WBC, differential WBC, RBC, WBC/RBC ratio, Hgb, PLT, HCT, MCH, MCHC, MCV, MPV and RDW) were analyzed with an Abbott Cell-Dyn 3500 CS automated haematology analyzer. Kidneys from saline control and the 12.8 gI/kg Compound I and iodixanol groups were immerse fixed in 10% neutral buffered formalin, processed into paraffin wax, sectioned at a nominal thickness of 5 μm, stained with haematoxylin and eosin and examined by light microscopy.
The data were analysed by parametric one-way ANOVA, followed by Dunnett's post procedure test, using the 2 days and 7 days saline groups for comparison with the 2 days and 7 days iodixanol and Compound I groups. The statistical analysis was applied on day −1 (baseline), day 2 and day 7.

normal pigs = assay: Haemodynamic effects after fast LAD injection in normal pigs (Example 2c); format: in vivo, pig; conditions: 40 ml at 5 ml/sec into LAD; Compound I in composition with 45 mM NaCl and 0.5 mM CaCl2
Procedure: FIG. 6 a) and b) depicts the effect on cardiovascular parameters following injection of 40 ml (5 ml/sec) of Ringer Lactate, Compound I, Visipaque or Iopamidol to the LAD of normal pigs.
In a further study the haemodynamic effects of Compound I in a composition with 45 mM NaCl and 0.5 mM CaCl2 was compared to Visipaque and Iopamidol following selective administration to the LAD of normal pigs with a fast injection rate (5 ml/sec). Ringer Lactate was also studied as a volume and electrolyte “ratio” control. In total 3 pigs were studied, and each CM was administered twice to each pig in random order. The injection rate used was 5 ml/sec with a total injection volume of 40 ml.

Structure (SMILES): O=CN(CC(O)CN(C=O)c1c(I)c(C(=O)NCC(O)CO)c(I)c(C(=O)NCC(O)CO)c1I)c1c(I)c(C(=O)NCC(O)CO)c(I)c(C(=O)NCC(O)CO)c1I (stereo not drawn) [Compound I, 5-[formyl-[3-[formyl-[3,5-bis(2,3-dihydroxypropylcarbamoyl)-2,4,6-triiodophenyl]amino]-2-hydroxypropyl]amino]-N,N′-bis(2,3-dihydroxypropyl)-2,4,6-triiodobenzene-1,3-dicarboxamide]
- binding to human serum albumin (HSA) [1]: 3.1±1.3%
- logP [2]: -4.28
- viscosity [3]: around 24 mPas
- osmolality [4]: 136 mOsm/kg
- Proximal Tubule Vacuolation, Left Kidney (Sca:SD rats; male, Sca:SD, 2 day): 3, 3, 3, 3
- duration of clinical signs (Sca:SD rats; male, Sca:SD, iv): 2 to 3 h
- onset of clinical signs after the first administration (Sca:SD rats; male, Sca:SD, iv): 10 to 20 min
- adverse clinical signs (Sca:SD rats; iv): mild to moderate depression and uncoordinated movements and weakness/inactivity
- increase in LVSP from baseline (normal pigs): ~5%
